# Literature values as cited in PubChem BioAssay AID1259409 (Chemical Carcinogenesis Research Information System (CCRIS), 2018).
# Test system: rodent chemically induced tumor inhibition, incidence and multiplicity
# Assay: CCRIS tumor inhibitor studies
# Settings: Route [Inhibitor]: ORAL; for tumour outcome (control, treated, inhibition, significance): Promoter: NONE USED
smiles,measurement,setting,value
O=[Se](O)O,"tumour outcome (control, treated, inhibition, significance)","Carcinogen: AZOXYMETHANE, 25843-45-2, Dose [Inhibitor]: 2.5 PPM IN DIET BEGINNING 1 WK POST CARCINOGEN DOSE FOR DURATION OF STUDY (STUDY DURATION: 39 WK), Species: RAT, Strain/Sex: F344/MALE, Target Tissue: Type of Lesion: DUODENUM: ADENOCARCINOMA, Dose [Carcinogen]: 15 MG/KG BW 1/WK FOR 2 WK","7/27 (26%), 8/27 (30%), -15%, not significant"
same,"tumour outcome (control, treated, inhibition, significance)","Carcinogen: AZOXYMETHANE, 25843-45-2, Dose [Inhibitor]: 2.5 PPM IN DIET BEGINNING 1 WK POST CARCINOGEN DOSE FOR DURATION OF STUDY (STUDY DURATION: 39 WK), Species: RAT, Strain/Sex: F344/MALE, Target Tissue: Type of Lesion: DUODENUM: ADENOMA, Dose [Carcinogen]: 15 MG/KG BW 1/WK FOR 2 WK","3/27 (11%), 5/27 (19%), -73%, not significant"
same,"tumour outcome (control, treated, inhibition, significance)","Carcinogen: AZOXYMETHANE, 25843-45-2, Dose [Inhibitor]: 2.5 PPM IN DIET BEGINNING 3 WK PRIOR TO CARCINOGEN DOSE AND CONTINUING FOR 1 WK POST CARCINOGEN DOSE (STUDY DURATION: 39, Species: RAT, Strain/Sex: F344/MALE, Target Tissue: Type of Lesion: COLON: ADENOCARCINOMA, Dose [Carcinogen]: 15 MG/KG BW 1/WK FOR 2 WK","10/27 (37%), 9/27 (33%), 11%, not significant"
same,"tumour outcome (control, treated, inhibition, significance)","Carcinogen: AZOXYMETHANE, 25843-45-2, Dose [Inhibitor]: 2.5 PPM IN DIET BEGINNING 3 WK PRIOR TO CARCINOGEN DOSE AND CONTINUING FOR 1 WK POST CARCINOGEN DOSE (STUDY DURATION: 39, Species: RAT, Strain/Sex: F344/MALE, Target Tissue: Type of Lesion: COLON: ADENOMA, Dose [Carcinogen]: 15 MG/KG BW 1/WK FOR 2 WK","16/27 (59%), 13/27 (48%), 19%, not significant"
same,"tumour outcome (control, treated, inhibition, significance)","Carcinogen: AZOXYMETHANE, 25843-45-2, Dose [Inhibitor]: 2.5 PPM IN DIET BEGINNING 3 WK PRIOR TO CARCINOGEN DOSE AND CONTINUING FOR 1 WK POST CARCINOGEN DOSE (STUDY DURATION: 39, Species: RAT, Strain/Sex: F344/MALE, Target Tissue: Type of Lesion: DUODENUM: ADENOCARCINOMA, Dose [Carcinogen]: 15 MG/KG BW 1/WK FOR 2 WK","7/27 (26%), 13/27 (48%), -85%, not significant"
same,"tumour outcome (control, treated, inhibition, significance)","Carcinogen: AZOXYMETHANE, 25843-45-2, Dose [Inhibitor]: 2.5 PPM IN DIET BEGINNING 3 WK PRIOR TO CARCINOGEN DOSE AND CONTINUING FOR 1 WK POST CARCINOGEN DOSE (STUDY DURATION: 39, Species: RAT, Strain/Sex: F344/MALE, Target Tissue: Type of Lesion: DUODENUM: ADENOMA, Dose [Carcinogen]: 15 MG/KG BW 1/WK FOR 2 WK","3/27 (11%), 6/27 (22%), -100%, not significant"
same,"tumour outcome (control, treated, inhibition, significance)","Carcinogen: AZOXYMETHANE, 25843-45-2, Dose [Inhibitor]: O.5 PPM IN DIET BEGINNING 3 WK PRIOR TO CARCINOGEN DOSE AND CONTINUING FOR 1 WK POST CARCINOGEN DOSE (STUDY DURATION: 39, Species: RAT, Strain/Sex: F344/MALE, Target Tissue: Type of Lesion: COLON: ADENOCARCINOMA, Dose [Carcinogen]: 15 MG/KG BW 1/WK FOR 2 WK","10/27 (37%), 8/27 (30%), 19%, not significant"
same,"tumour outcome (control, treated, inhibition, significance)","Carcinogen: BENZO[A]PYRENE, 50-32-8, Dose [Inhibitor]: 4 PPM IN DRINKING WATER DAILY FOR 12 MO STARTING 12 MO BEFORE CARCINOGEN TREATMENT (STUDY DURATION: 67 WK), Species: MOUSE, Strain/Sex: BALB/MALE, Target Tissue: Type of Lesion: INJECTION SITE: SARCOMA, Dose [Carcinogen]: 4 UG/G BW ONCE","31/50 (62%), 14/50 (28%), 55%"
same,outcome,"Carcinogen: DIETHYLNITROSAMINE [55-18-5], Dose [Inhibitor]: 5 PPM IN DRINKING WATER, 3 WK AFTER PARTIAL HEPATECTOMY TO END AT 12 MO (STUDY DURATION: 12 MO), DRINKING WATER, Species: RAT, Strain/Sex: F344, Target Tissue: Type of Lesion: LIVER: TUMOR DENSITY, Dose [Carcinogen]: 200 MG/KG BW ONCE, Promoter: 2-ACETYLAMINOFLUORENE [53-96-3]","26, 14, 46.2%, p=0.01"
same,"tumour outcome (control, treated, inhibition, significance)","Carcinogen: DIETHYLNITROSAMINE, 55-18-5, Dose [Inhibitor]: 0, 1 MG/L IN DRINKING WATER FOR DURATION OF STUDY BEGINNING 7 D PRIOR TO FIRST CARCINOGEN DOSE (STUDY DURATION: 6 MO), Species: RAT, Strain/Sex: BD6/FEMALE, Target Tissue: Type of Lesion: ESOPHAGUS: TUMOR, Dose [Carcinogen]: 80 MG/KG BW 1/WK FOR 8 WK","30%, 0%, 100%, p<0.05"
same,"tumour outcome (control, treated, inhibition, significance)","Carcinogen: DIETHYLNITROSAMINE, 55-18-5, Dose [Inhibitor]: 0, 5 MG/L IN DRINKING WATER FOR DURATION OF STUDY BEGINNING 7 D PRIOR TO CARCINOGEN TREATMENT (STUDY DURATION: 6 MO), Species: RAT, Strain/Sex: BD6/FEMALE, Target Tissue: Type of Lesion: ESOPHAGUS: TUMOR, Dose [Carcinogen]: 80 MG/KG BW 1/WK FOR 9 WK","50%, 51%, -2%, not significant"
same,"tumour outcome (control, treated, inhibition, significance)","Carcinogen: DIETHYLNITROSAMINE, 55-18-5, Dose [Inhibitor]: 0, 5 MG/L IN DRINKING WATER FOR DURATION OF STUDY BEGINNING 7 D PRIOR TO CARCINOGEN TREATMENT (STUDY DURATION: 6 MO), Species: RAT, Strain/Sex: BD6/FEMALE, Target Tissue: Type of Lesion: LIVER: TUMOR, Dose [Carcinogen]: 80 MG/KG BW 1/WK FOR 9 WK","100%, 95%, 5%, not significant"
same,"tumour outcome (control, treated, inhibition, significance)","Carcinogen: DIETHYLNITROSAMINE, 55-18-5, Dose [Inhibitor]: 0, 5 MG/L IN DRINKING WATER FOR DURATION OF STUDY BEGINNING 7 D PRIOR TO FIRST CARCINOGEN DOSE (STUDY DURATION: 6 MO), Species: RAT, Strain/Sex: BD6/FEMALE, Target Tissue: Type of Lesion: ESOPHAGUS: TUMOR, Dose [Carcinogen]: 80 MG/KG BW 1/WK FOR 8 WK","31%, 50%, -61%, not significant"
same,"tumour outcome (control, treated, inhibition, significance)","Carcinogen: DIETHYLNITROSAMINE, 55-18-5, Dose [Inhibitor]: 0, 5 MG/L IN DRINKING WATER FOR DURATION OF STUDY BEGINNING 7 D PRIOR TO FIRST CARCINOGEN DOSE (STUDY DURATION: 6 MO), Species: RAT, Strain/Sex: BD6/FEMALE, Target Tissue: Type of Lesion: LIVER: TUMOR, Dose [Carcinogen]: 80 MG/KG BW 1/WK FOR 8 WK","94%, 94%, 0%, not significant"
same,"tumour outcome (control, treated, inhibition, significance)","Carcinogen: DIETHYLNITROSAMINE, 55-18-5, Dose [Inhibitor]: 0, 10 MG/L IN DRINKING WATER FOR DURATION OF STUDY BEGINNING 4 D POST CARCINOGEN TREATMENT (STUDY DURATION: 6 M0), Species: RAT, Strain/Sex: BD6/FEMALE, Target Tissue: Type of Lesion: LIVER: TUMOR, Dose [Carcinogen]: 80 MG/KG BW 1/WK FOR 9 WK","100%, 96%, 4%, not significant"
